Where two headings read alike, the source gives them in different places.

Data set [1] deals with T1, hCHT (Homo sapiens, UniProt Q9GZV3).
T1 construct: The hCHT cDNA encodes a protein of 580 amino acids; expressed in transfected cells; host or cells: COS-7 (transient, FuGene 6, pcDNA3)
T1 sequence (Q9GZV3 1-580): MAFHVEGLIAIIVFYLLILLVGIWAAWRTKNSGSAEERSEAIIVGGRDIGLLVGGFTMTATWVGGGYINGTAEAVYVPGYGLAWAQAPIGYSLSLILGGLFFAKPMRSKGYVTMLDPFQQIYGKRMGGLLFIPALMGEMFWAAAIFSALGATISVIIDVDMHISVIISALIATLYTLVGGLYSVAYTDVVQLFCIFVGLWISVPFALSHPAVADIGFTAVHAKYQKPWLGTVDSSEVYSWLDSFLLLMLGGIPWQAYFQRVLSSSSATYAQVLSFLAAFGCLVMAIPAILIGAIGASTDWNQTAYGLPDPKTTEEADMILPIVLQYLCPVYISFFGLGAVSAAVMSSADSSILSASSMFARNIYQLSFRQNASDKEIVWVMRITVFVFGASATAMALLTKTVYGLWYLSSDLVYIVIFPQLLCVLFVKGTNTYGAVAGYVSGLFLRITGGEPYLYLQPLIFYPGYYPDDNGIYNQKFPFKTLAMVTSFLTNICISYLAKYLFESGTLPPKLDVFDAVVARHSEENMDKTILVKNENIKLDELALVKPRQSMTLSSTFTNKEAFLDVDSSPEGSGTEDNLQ
Put plainly: [3H]HC-3 radioligand binding in membrane fractions of hCHT transfected COS-7 cells. The conditions noted are these: for Ki: 10 nM [3H]HC-3, hCHT transfected COS-7 cell membranes, read-out: Ki in inhibiting [3H]HC-3 binding. The protocol:
COS-7 cells were transfected with a pcDNA3 vector containing hCHT cDNA using the FuGene 6 transfection reagent (Roche Diagnostics) following the manufacturer's protocols. Briefly, COS-7 cells were cultured in Dulbecco's modified Eagles' medium (DMEM) supplemented with 10% fetal bovine serum (Hyclone), 100 μg/ml of penicillin and streptomycin at a density of 3-4 million cells in 150 mm culture dishes or 5×10^4 cells per well in 24 well dishes (Falcon). After 24 hr, cells were transfected and 48 hr later, the cells were harvested and processed for membrane binding and whole cell or vesicle transport assays.
Monolayers of hCHT transfected COS-7 cells were washed with 30 ml of HTE buffer and harvested in 10 ml of homogenization buffer (0.32 M sucrose in HTE buffer). Cells were homogenized at 20,000 rpm for 25 sec using a Polytron tissue homogenizer (Brinkman). The homogenate was centrifuged at 100,000×g for 45 min at 4° C. The resulting pellet was suspended in 2 ml of HTE buffer, assayed for protein content (Bradford method; BioRad) and 50 μg of the membrane suspension (1 μg/μl) was transferred to each tube in triplicate. Unless otherwise indicated, all binding assays were performed in the presence of 150 mM NaCl in HTE buffer. Assays were initiated by the addition of [^3H]HC-3 (127 Ci per mmol; NEN Life Science Products, 10 nM final concentration). After a 1 hr incubation at room temperature, membranes were rapidly filtered through glass fiber GF/B filters (Brandel) soaked in 0.3% polyethylenimine (Sigma) in HTE buffer and accumulated radioactivity was quantified using liquid scintillation spectrometry (Packard). To test the ion dependence of hCHT binding activity, Na^+ was replaced in the assay buffer with equimolar concentrations of Li^+ whereas Cl^− was replaced with equimolar concentrations of isethionate. Non-specific binding was quantified by measuring [^3H] […] Data for binding and transport assays (see below) were analyzed using nonlinear least squares curve fitting and Scatchard transformations (Kaleidagraph, Abelbeck).

In data set [2] the target is T1, hCHT. Put plainly: [3H]choline transport in resealed membrane vesicles from hCHT transfected COS-7 cells. It is filed as biochemical. Here is the method: To assay CHT activity in resealed membrane vesicles from hCHT-transfected mammalian cells, the inventors transiently transfected COS-7 cells with hCHT as described herein above and prepared membrane fractions as described for binding assays. After obtaining the membrane fractions, resealed membrane vesicles were prepared as described by Fisher et al., 1992 (Fishe et al., 1992) with slight modifications. The membrane pellets were resuspended in 2 ml of HTE buffer (˜2 μg/μl) and the suspension was rotated gently at 4° C. for 45 min. Membrane vesicle suspensions were centrifuged (27,000×g) for 20 min at 4° C. and the resulting pellet suspended in 2 ml of Na^+ and Cl^− free HTE buffer. Protein content of the suspension was determined (Bradford; BioRad) and 50 μg of the vesicle suspension (1 μg/μl) was transferred to each tube for triplicate assays. […] After a 5 min incubation at room temperature, vesicles were rapidly filtered through Whatman GF/B filters soaked in 0.3% polyethylenimine in HTE buffer and the accumulated radioactivity quantified as described for binding assays. […] In all experiments, non-specific uptake was quantified by determining uptake in the presence of 1 μM HC-3 and subtracted from the total uptake to yield specific transport.

Data set [3] addresses T2, mCHT (Mus musculus, UniProt Q8BGY9, Q119K/Q86H).
T2 construct: expressed in transfected cells; host or cells: COS-7 (transient, pcDNA3)
T2 sequence (Q8BGY9 with tags, fused parts or gaps Q86H/Q119K): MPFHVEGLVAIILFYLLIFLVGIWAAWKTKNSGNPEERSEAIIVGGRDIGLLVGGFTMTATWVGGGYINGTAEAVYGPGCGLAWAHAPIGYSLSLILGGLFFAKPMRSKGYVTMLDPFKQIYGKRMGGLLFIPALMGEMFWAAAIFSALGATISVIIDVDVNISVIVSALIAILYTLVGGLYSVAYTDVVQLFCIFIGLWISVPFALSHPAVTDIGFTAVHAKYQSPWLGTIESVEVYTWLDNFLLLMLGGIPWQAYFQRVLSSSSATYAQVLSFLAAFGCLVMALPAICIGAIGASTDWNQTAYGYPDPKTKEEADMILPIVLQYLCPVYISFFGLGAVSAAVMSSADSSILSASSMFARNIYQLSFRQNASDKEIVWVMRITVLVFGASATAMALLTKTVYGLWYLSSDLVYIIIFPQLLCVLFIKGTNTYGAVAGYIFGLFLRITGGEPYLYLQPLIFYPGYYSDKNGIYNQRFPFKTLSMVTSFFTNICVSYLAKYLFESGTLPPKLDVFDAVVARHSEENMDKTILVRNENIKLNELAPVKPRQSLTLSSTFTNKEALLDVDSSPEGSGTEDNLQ
Put plainly: [3H]HC-3 binding in membrane fractions of mCHT transfected COS-7 cells. The conditions noted are these: for Ki: mCHT transfected COS-7 cell membrane, read-out: Ki in inhibiting [3H]HC-3 binding.

Data set [4] addresses T2, mCHT. Put plainly: choline uptake in resealed membrane vesicles from mCHT transfected COS-7 cells. It is filed as biochemical. To be noted: for IC50: resealed membrane vesicles, mCHT.
Substrate in data set [5]: C[N+](C)(C)CCO
Put plainly: cells, lysate or membranes named.

Take `CC(=O)OCC[N+](C)(C)C` [ACh, acetylcholine]: the Ki turned out to be 433000 nM in data set [1] (ACh in the presence of 10 μM physostigmine), 570 nM in data set [2] and 433000 nM in data set [3] (ACh in the presence of physostigmine).
For the molecule `C[N+]1(C)CCOC(O)(c2ccc(-c3ccc(C4(O)C[N+](C)(C)CCO4)cc3)cc2)C1.[Br-].[Br-]` (stereo not drawn) [HC-3, hemicholinium-3], the Ki in data set [1] stood at 4 nM; in data set [2] (read-out: Ki for inhibition of [3H]choline uptake, resealed membrane vesicles, hCHT, 20 nM [3H]choline) it was 5 nM; in data set [3] it was 5 nM. Moreover, in data set [1] (single site kinetics), the “Hill coefficient of [3H]HC-3 binding” value was found to be 0.99. The “effect on choline uptake” value in data set [4] (1 μM HC-3, mCHT vesicles against vector transfected) is reported as “reduced choline uptake to levels seen in vector transfected COS-7 membrane vesicles”. In addition, the IC50 in data set [4] (read-out: IC50 for inhibition of mCHT-mediated choline uptake) is 5 nM. The “effect of addition of HC-3 on [3H]choline uptake” value in data set [2] (hCHT vesicles against vector transfected controls, data not shown) was “reduced [^3H]choline uptake to levels seen in vector transfected COS-7 membrane vesicles”. In addition, the Kd in data set [3] (Scatchard transformation, mCHT expressing membranes, read-out: equilibrium dissociation constant (Kd) of [3H]HC-3 binding) was 5 nM.
For the molecule `C[N+](C)(C)CCO` [choline], half-maximal inhibition in data set [4] (IC50) required 123 nM. Further, the affinity in data set [2] corresponds to a Ki of 123 nM.

B1: mCHT (Mus musculus; Q119K/Q86H) (protein)
chain: MPFHVEGLVAIILFYLLIFLVGIWAAWKTKNSGNPEERSEAIIVGGRDIGLLVGGFTMTATWVGGGYINGTAEAVYGPGCGLAWAHAPIGYSLSLILGGLFFAKPMRSKGYVTMLDPFKQIYGKRMGGLLFIPALMGEMFWAAAIFSALGATISVIIDVDVNISVIVSALIAILYTLVGGLYSVAYTDVVQLFCIFIGLWISVPFALSHPAVTDIGFTAVHAKYQSPWLGTIESVEVYTWLDNFLLLMLGGIPWQAYFQRVLSSSSATYAQVLSFLAAFGCLVMALPAICIGAIGASTDWNQTAYGYPDPKTKEEADMILPIVLQYLCPVYISFFGLGAVSAAVMSSADSSILSASSMFARNIYQLSFRQNASDKEIVWVMRITVLVFGASATAMALLTKTVYGLWYLSSDLVYIIIFPQLLCVLFIKGTNTYGAVAGYIFGLFLRITGGEPYLYLQPLIFYPGYYSDKNGIYNQRFPFKTLSMVTSFFTNICVSYLAKYLFESGTLPPKLDVFDAVVARHSEENMDKTILVRNENIKLNELAPVKPRQSLTLSSTFTNKEALLDVDSSPEGSGTEDNLQ
For the molecule B1, the Michaelis-Menten constant (Km) in data set [5] (other: Eadie-Hofstee plot, single site, mCHT vesicles) was 2 µM.

B2: hCHT (Homo sapiens) (protein)
chain: MAFHVEGLIAIIVFYLLILLVGIWAAWRTKNSGSAEERSEAIIVGGRDIGLLVGGFTMTATWVGGGYINGTAEAVYVPGYGLAWAQAPIGYSLSLILGGLFFAKPMRSKGYVTMLDPFQQIYGKRMGGLLFIPALMGEMFWAAAIFSALGATISVIIDVDMHISVIISALIATLYTLVGGLYSVAYTDVVQLFCIFVGLWISVPFALSHPAVADIGFTAVHAKYQKPWLGTVDSSEVYSWLDSFLLLMLGGIPWQAYFQRVLSSSSATYAQVLSFLAAFGCLVMAIPAILIGAIGASTDWNQTAYGLPDPKTTEEADMILPIVLQYLCPVYISFFGLGAVSAAVMSSADSSILSASSMFARNIYQLSFRQNASDKEIVWVMRITVFVFGASATAMALLTKTVYGLWYLSSDLVYIVIFPQLLCVLFVKGTNTYGAVAGYVSGLFLRITGGEPYLYLQPLIFYPGYYPDDNGIYNQKFPFKTLAMVTSFLTNICISYLAKYLFESGTLPPKLDVFDAVVARHSEENMDKTILVKNENIKLDELALVKPRQSMTLSSTFTNKEAFLDVDSSPEGSGTEDNLQ
For the molecule B2, the Michaelis-Menten constant (Km) in data set [5] (other: resealed membrane vesicles, hCHT) was found to be 1.6 µM.

For the origin of these results see patent publication US7338799B2 (Vanderbilt University, priority 2001, dated 2008).
